According to ChEMBL document CHEMBL6182926, “Design, Synthesis, and Biological Activity Evaluation of Deuterated Diphenyl Azole Alcohol-Based CYP51 Inhibitors” (J Med Chem, 2025):
In brackets after ≈: the same amount, converted by molar mass. Activity calls are given as the source filed them. No cut-off for these calls is given here.

Legend:
Candida albicans [1] = experiment: Antifungal activity against Candida albicans SC5314 assessed as reduction in ergosterol at 4 ug/ml measured after 18 hrs incubation by gas chromatography-mass spectrometry (GCMS) analysis (reference value: 96.72%); format: functional; design: scale not given: the % may be the effect or the level left; settings: dose 4 µg/ml
Cryptococcus neoformans [2] = experiment: Antifungal activity against Cryptococcus neoformans CGMCC 2.3161 assessed as inhibition of visible growth; format: functional
Nakaseomyces glabratus [3] = experiment: Inhibition of biofilm formation in clinical isolate Candida glabrata assessed as inhibition of metabolic activity of biofilm measured after 24 hrs by XTT assay; format: functional
Candida albicans [4] = experiment: In vivo anti-resistant activity against fluconazole-resistant Candida albicans strain 17# infected in cyclophosphamide-immunosuppressed ICR mouse model assessed as reduction in fungal burden in kidney at 1 to 5 mg/kg, oral gavage for 5 days post infection; format: functional, organism-based; settings: dose 1-5 mg/kg, time 5.0 day
Aspergillus fumigatus = experiment: Antifungal activity against Aspergillus fumigatus CGMCC 3.7795 assessed as inhibition of visible growth; format: functional
Pichia kudriavzevii [5] = experiment: Antifungal activity against Candida krusei AS 2.1045 assessed as inhibition of visible growth; format: functional
Candida tropicalis = experiment: Antifungal activity against Candida tropicalis CGMCC 2.3739 assessed as inhibition of visible growth; format: functional
Nakaseomyces glabratus [6] = experiment: Fungicidal activity against Clinical isolate Candida glabrata assessed as concentration of colonies (< 5) measured after 48 hrs incubation; format: functional
Candida albicans [7] = experiment: Antifungal activity against Candida albicans CPCC 400616 assessed as inhibition of visible growth; format: functional
[8] = Cytotoxicity against human SH-SY5Y cells measured after 72 hrs by MTT assay; format: toxicity, cell-based
Cell membrane [9] = experiment: Antifungal activity against Candida albicans SC5314 assessed as reduction in Eburicol at 4 ug/ml measured after 18 hrs incubation by gas chromatography-mass spectrometry (GCMS) analysis; format: subcellular; design: scale not given: the % may be the effect or the level left; settings: dose 4.0 µg/ml
Candida albicans [10] = experiment: Antifungal activity against Candida albicans SC5314 assessed as reduction in 14alpha-methylsterols at 4 ug/ml measured after 18 hrs incubation by gas chromatography-mass spectrometry (GCMS) analysis (reference value: 0.69%); format: functional; design: scale not given: the % may be the effect or the level left; settings: dose 4 µg/ml
Cryptococcus neoformans [11] = experiment: Fungicidal activity against Cryptococcus neoformans CGMCC 2.3161 assessed as concentration of colonies (< 5) measured after 48 hrs incubation; format: functional
Cryptococcus neoformans [12] = experiment: Antifungal activity against Cryptococcus neoformans CGMCC 2.3161 assessed as reduction in ergosterol at 8 ug/ml measured after 18 hrs incubation by gas chromatography-mass spectrometry (GCMS) analysis (reference value: 94.48%); format: functional; design: scale not given: the % may be the effect or the level left; settings: dose 8 µg/ml
Candida albicans [13] = experiment: Antifungal activity against Candida albicans SC5314 assessed as reduction in other sterol at 4 ug/ml measured after 18 hrs incubation by gas chromatography-mass spectrometry (GCMS) analysis (reference value: 2.59%); format: functional; design: scale not given: the % may be the effect or the level left; settings: dose 4 µg/ml
Candida parapsilosis = experiment: Antifungal activity against Candida parapsilosis GIM 2.190 assessed as inhibition of visible growth; format: functional; settings: Lodderomyces parapsilosis
Cryptococcus neoformans [14] = experiment: Antifungal activity against Cryptococcus neoformans CGMCC 2.3161 assessed as reduction in Eburicol at 8 ug/ml measured after 18 hrs incubation by gas chromatography-mass spectrometry (GCMS) analysis; format: functional; design: scale not given: the % may be the effect or the level left; settings: dose 8 µg/ml
Candida albicans [15] = experiment: Antifungal activity against Candida albicans SC5314 assessed as reduction in Lanosterol at 4 ug/ml measured after 18 hrs incubation by gas chromatography-mass spectrometry (GCMS) analysis; format: functional; design: scale not given: the % may be the effect or the level left; settings: dose 4 µg/ml
Cryptococcus neoformans [16] = experiment: Antifungal activity against Cryptococcus neoformans CGMCC 2.3161 assessed as reduction in Obtusifoliol at 8 ug/ml measured after 18 hrs incubation by gas chromatography-mass spectrometry (GCMS) analysis; format: functional; design: scale not given: the % may be the effect or the level left; settings: dose 8 µg/ml
Nakaseomyces glabratus [17] = experiment: Antifungal activity against Clinical isolate Candida glabrata assessed as inhibition of visible growth; format: functional
[18] = Cytotoxicity against human HUVEC cells measured after 72 hrs by MTT assay; format: toxicity, cell-based
Cell membrane [19] = experiment: Induction of loss of cell membrane integrity in Candida albicans SC5314 assessed as irregular cell morphology at 16 microg/ml measured after 48 hrs incubation by transmission electron microscopy; format: subcellular; settings: dose 16.0 µg/ml
Cryptococcus neoformans [20] = experiment: Antifungal activity against Cryptococcus neoformans CGMCC 2.3161 assessed as reduction in other sterol at 8 ug/ml measured after 18 hrs incubation by gas chromatography-mass spectrometry (GCMS) analysis (reference value: 2.20%); format: functional; design: scale not given: the % may be the effect or the level left; settings: dose 8 µg/ml
Candida albicans [21] = experiment: Antifungal activity against Candida albicans SC5314 assessed as reduction in Obtusifoliol at 4 ug/ml measured after 18 hrs incubation by gas chromatography-mass spectrometry (GCMS) analysis; format: functional; design: scale not given: the % may be the effect or the level left; settings: dose 4 µg/ml
Pichia kudriavzevii [22] = experiment: Fungicidal activity against Candida krusei AS 2.1045 assessed as concentration of colonies (< 5) measured after 48 hrs incubation; format: functional
Cryptococcus neoformans [23] = experiment: Inhibition of biofilm formation in Cryptococcus neoformans CGMCC 2.3161 assessed as inhibition of metabolic activity of biofilm measured after 24 hrs by XTT assay; format: functional
Candida albicans [24] = experiment: Antifungal activity against Candida albicans SC 5314 assessed as inhibition of visible growth; format: functional

OC(Cn1cncn1)(Cn1cncn1)c1ccc(F)cc1F [FLUCONAZOLE]
Activity (Candida albicans [1]): 3.81%
MIC80 (Cryptococcus neoformans [2]): 16 µg/mL (≈ 52.2 µM)
MIC50 (Nakaseomyces glabratus [3]): 0.12 µg/mL (≈ 0.392 µM)
Activity (Candida albicans [4]): inactive
MIC80 (Aspergillus fumigatus): > 64 µg/mL
MIC80 (Pichia kudriavzevii [5]): 8 µg/mL (≈ 26.1 µM)
MIC80 (Candida tropicalis): 0.25 µg/mL (≈ 0.816 µM)
MFC (Nakaseomyces glabratus [6]): > 128 µg/mL
MIC80 (Candida albicans [7]): 0.5 µg/mL (≈ 1.63 µM)
IC50 at 72 h [8]: > 100 µM
Activity (Cell membrane [9]): 49.5%
Activity (Candida albicans [10]): 8.46%
MFC (Cryptococcus neoformans [11]): > 128 µg/mL
Activity (Cryptococcus neoformans [12]): 86.73%
Activity (Candida albicans [13]): 13.1%
MIC80 (Candida parapsilosis): 1 µg/mL (≈ 3.27 µM)
Activity (Cryptococcus neoformans [14]): 5.92%
Activity (Candida albicans [15]): 18.35%
Activity (Cryptococcus neoformans [16]): 3.85%
MIC80 (Nakaseomyces glabratus [17]): 32 µg/mL (≈ 104 µM)
IC50 at 72 h [18]: > 40 µM
Activity (Cell membrane [19]): Active
Activity (Cryptococcus neoformans [20]): 3.51%
Activity (Candida albicans [21]): 18.55%
MFC (Pichia kudriavzevii [22]): > 128 µg/mL
MIC50 (Cryptococcus neoformans [23]): 32 µg/mL (≈ 104 µM)
MIC80 (Candida albicans [24]): 0.25 µg/mL (≈ 0.816 µM)
